Measurements reported in patent US20050234073A1, “Methods of inhibiting inflammation” (priority 2003, published 2005).
Marks after values point to notes of the source that are not given here.

Legend:
[1] = Hapten-induced (oxazolone) colitis; format: in vivo, mouse
Description: The hapten-induced colitis model using oxazolone (4-ethoxymethylene-2-phenyl-2-oxazolin-5-one) as the hapten was established in WT B6 or MTP^flox/floxMx1Cre mice as previously described. Briefly, 6 week-old female mice were injected intraperitoneally with vehicle or 500 μg pIpC at days 1, 3, 5 and 7 followed by application of 200 μl of 3% oxazolone (Sigma-Aldrich, St. Louis, Mo.) in 100% ethanol on the abdomen at day 8. On day 14, mice were anesthetized with tribromo-ethanol (Sigma-Aldrich) and 150 μl of 1% oxazolone in 50% ethanol administered per rectum via a 3.5F catheter. Wasting was monitored until day 18 at which time the mice were sacrificed and tissue samples collected for histological examination. Colonic tissue specimens for histological assessment of colitis were fixed in 10% buffered formalin phosphate and embedded in paraffin, cut into 5 micron thick sections and stained with hematoxylin-eosin. The stained paraffin sections were evaluated by for the following parameters of colitis on a scale of 0 to 3 according to known methods: hypervascularity, mononuclear cell infiltration, crypt hyperplasia, epithelial injury or ulceration, polymorphonuclear cell infiltration or crypt abscesses.
The effect of MTPp gene deletion on the clinicopathologic outcome of oxazolone-induced colitis was examined.

[2] = format: in vivo, mouse
Description: αGalCer was kindly provided by Dr. Michael Brenner (Brigham and Women's Hospital, Boston, Mass.). […] Mice were sacrificed and sera from peripheral blood subjected to […] (ALT) or aminoaspartate transferase (AST) assays. The kinetic quantitative determination of ALT in serum was performed by ALT/SGPT LIQUI-UV (Stanbio Laboratory, Boeme, Tex.) according to the manufacture's instructions. Fresh liver samples were collected for macroscopic and microscopic inspection. For microscopic examination, liver tissues were immediately fixed in 10% buffered formalin phosphate and embedded in paraffin, cut into sections and stained with hematoxylin-eosin. The clinical response to a hepatocyte mediated, CD1d-dependent response in vivo was evaluated (Osman, Y. et al. Eur. J. Immunol. 30, 1919-1928 (2000)). […] The latter was evident from the absence of elevations of transaminases (FIG. 2D, panels c and d), macroscopic liver necrosis (FIG. 2E, panel d) or microscopic evidence of hepatitis (FIG. 2F, panel d) in the MTP^flox/floxMx1Cre mice that received αGalCer with prior pIpC treatment.

[3] = biological target: recombinant murine CD1d, beta2m associated, purified by baculovirus expression system (mouse) (UniProt P11609); experiment: cell-based or functional assay
[4] = Assessment of plasma lipids and body weight after pIpC treatment; format: in vivo, mouse
Description: Female 6-8 week-old of both MTP^pflox/floxMx1Cre mice and WT B6 mice that had been injected intraperitoneally with either PBS as control or 500 μg polyinosinic-polycytidylic ribonucleic acid (pIpC, Sigma, St. Louis, Mo.) in PBS every other day for a total of four doses were sacrificed one or 10 days after the last pIpC injection at which time sera was obtained from peripheral blood. The serum was subjected to total cholesterol and triglyceride assays at the clinical laboratory of Brigham and Women's Hospital (Boston, Mass.).
To further substantiate a direct biochemical relationship between CD1d and MTP, the effects on CD1d expression and function was examined in a conditional MTP-deficient mouse model which contains a “floxed” MTPp gene (MTPp^flox/flox) that had been intercrossed with mice expressing Mx1 promoter controlled, Cre-recombinase (Raabe, M. et al. J. Clin. Invest. 103, 1287-1298 (1999); Bjorkegren, J., Beigneux, A., Bergo, M. O., Maher, J. J. & Young, S. G. J. Biol. Chem. 277, 5476-5483 (2002)). The Mx1 promoter is induced by interferon-inducing substances such as polyinosinic-polycytidylic acid (pIpC) (Raabe, M. et al. J. Clin. Invest. 103, 1287-1298 (1999); Bjorkegren, J., Beigneux, A., Bergo, M. O., Maher, J. J. & Young, S. G. J. Biol. Chem. 277, 5476-5483 (2002); Ralf, K., Schwenk, F., Aguet, M. & Rajewsky, K. Science. 269, 1427-1429 (1995)) such that treatment of MTPp^flox/floxMx1Cre mice with pIpC leads to deletion of the MTPp gene (MTPp^Δ/Δ) primarily within the liver, spleen and intestine providing a degree of tissue specificity to the gene deletion. As previously reported, treatment of 6-10 week old MTPp^flox/floxMx1Cre mice (or MTP^flox/floxMx1Cre mice) with pIpC caused progressive hepatic steatosis (1C) and decreases in serum triglyceride and cholesterol levels (Table 5) in association with decreased MTP mRNA levels as defined by RT-PCR (FIG. 1D) and protein levels (FIG. 1E) in liver and colon.

CD1d = experiment: Flow cytometric analysis of CD1d surface expression on splenocytes of pIpC treated mice; format: in vivo, mouse; details: for Mean fluorescence intensity: CD1d; for Mean fluorescence intensity / % CD1d+: splenocytes
Text: Mouse cells were stained using the following antibodies: FITC-conjugated α-CD1d (1B1, PharMingen); PE-conjugated α-CD11c (HL3, PharMingen); FITC-conjugated α-1-A^d (AMS-32.1, PharMingen); PE-conjugated α-CD69 (H1.2F3, PharMingen); PE-conjugated α-B220 (RA3-6B2, PharMingen). Human cells were stained using: PE-conjugated α-CD83 (550634, PharMingen); FITC-conjugated α-HLA-A,B,C (557348, PharMingen); α-HLA DR,DP,DQ (32381A, PharMingen); α-CD1d (42.1 or 51.1.3); α-mouse IgG+IgM (AMI1708, Biosource, Camarillo, Calif.). Staining was performed in the presence of Via-Probe (PharMingen) and analyzed with a FACSort flow cytometer (Becton Dickinson).

[5] = C57BL/6J mice, 1 day after treatment
[6] = C57BL/6J mice, 10 days after treatment
[7] = MTPflox/floxMx1Cre mice, 1 day after treatment
[8] = MTPflox/floxMx1Cre mice, 10 days after treatment

Chain of recombinant murine CD1d, beta2m associated, purified by baculovirus expression system (mouse) (P11609 22-305): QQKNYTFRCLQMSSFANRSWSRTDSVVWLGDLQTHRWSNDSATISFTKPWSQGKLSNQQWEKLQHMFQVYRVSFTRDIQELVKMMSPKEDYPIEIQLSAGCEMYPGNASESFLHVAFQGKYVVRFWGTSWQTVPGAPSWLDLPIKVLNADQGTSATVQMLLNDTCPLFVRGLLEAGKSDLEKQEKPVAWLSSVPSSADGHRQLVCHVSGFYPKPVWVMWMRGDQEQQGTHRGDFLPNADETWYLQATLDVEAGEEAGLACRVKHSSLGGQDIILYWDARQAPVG

For `CCOC=C1N=C(c2ccccc2)OC1=O` [oxazolone, 4-ethoxymethylene-2-phenyl-2-oxazolin-5-one], the colitis induction ([1]; MTPflox/floxMx1Cre mice without pIpC) was “severe colitis”.

For `CCCCCCCCCCCCCCCCCCCCCCCCCC(=O)N[C@@H](CO[C@H]1O[C@H](CO)[C@H](O)[C@H](O)[C@H]1O)[C@H](O)[C@H](O)CCCCCCCCCCCCCC` [αGalCer, α-galactosylceramide], the hepatitis induction ([2]; wild-type C57BL/6J and MTPflox/floxMx1Cre mice, without pIpC-induced deletion) was “induced hepatitis”.

“MTP purified from rat liver (from UniProt D4A1W8 22-896; P04785 20-509)” showed an MTP-mediated PE transfer to CD1d [3] of 0.4 to 1.6 picomoles and a fluorescence of NBD-labeled PE transferred to plate-coated CD1d [3] of 5 fold.

With “polyinosinic-polycytidylic ribonucleic acid [pIpC]” the Serum triglycerides [4, 5] was 88.1 ± 6.6 mg/dL, the “Total S. Cholesterol” value [4, 5] was 96.2 ± 12.2 mg/dL and the Serum triglycerides [4, 6] was 110.0 ± 11.2 mg/dL. The “Total S. Cholesterol” value [4, 6] was 127.0 ± 5.8 mg/dL, the Serum triglycerides [4, 7] was 52.0 ± 7.5 mg/dL and the “Total S. Cholesterol” value [4, 7] was 55.1 ± 9.7 mg/dL. For the same molecule, the Serum triglycerides [4, 8] was 43.5 ± 7.3 mg/dL, the “Total S. Cholesterol” value [4, 8] was 49.2 ± 3.1 mg/dL and the Mean fluorescence intensity (CD1d; B6 mice) was 8.0. The Mean fluorescence intensity (CD1d; MTPmx1 mice) was 6.2 +/− 0.9*, the CD1d expression (CD1d; control wild-type mice injected with pIpC) was “No reduction” and the “% CD1d+” value (CD1d; B6 mice) was 42.2%. For the same molecule, the “% CD1d+” value (CD1d; MTPmx1 mice) was 29.9 +/− 4.7* %, the “colitis in response to oxazolone” value ([1]; MTPflox/floxMx1Cre mice pretreated with pIpC) was “little evidence of colitis” and the colitis ([1]; WT B6 mice exposed to oxazolone with pIpC administration) was “not ameliorated”. The hepatic inflammation ([2]; mouse, in vivo) was “absence of inflammation”.
